The record followed here is PubChem BioAssay (NCI).

Among the test systems are K-562 leukemia; HOP-18 NSCLC; KM20L2 colon; NCI-H226 lung; M19-MEL melanoma; LXFL 529 NSCLC; MALME-3M melanoma; DLD-1 colon; HCT-116 colon; SNB-78 CNS; IGROV1 ovarian; DMS 273 small cell lung; DMS 114 small cell lung; HCC-2998 colon.
What all share (assay): growth of human tumour cells (NCI), 48 h

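1) Cells in 96-well plates. 2) Compound, 48 h, 5 concentrations. 3) Linear interpolation between surrounding doses. 4) Unreached endpoint = highest concentration. At the GI50, growth is halved. TGI: concentration producing complete growth inhibition.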

As for `COc1cc(C(C#N)NNC(=O)c2ccccc2O)ccc1O` (stereo not given), the TGI in the assay on K-562 leukemia is over 100 µM; with HOP-18 NSCLC it was 97.9 µM; in the assay on KM20L2 colon, over 100 µM; with NCI-H226 lung, 38 µM; in the assay on M19-MEL melanoma it was over 100 µM; in the assay on LXFL 529 NSCLC, over 100 µM. Further, the TGI with MALME-3M melanoma, in the assay on DLD-1 colon, with HCT-116 colon, in the assay on SNB-78 CNS and in the assay with IGROV1 ovarian was over 100 µM throughout.
On to `Cn1c2ccccc2n2c3nc4ccccc4nc3c(C#N)c12`, for which the TGI in the assay on K-562 leukemia, in the assay on HOP-18 NSCLC, with DMS 273 small cell lung, with NCI-H226 lung, in the assay with M19-MEL melanoma and in the assay on LXFL 529 NSCLC was over 100 µM in each case. Besides, the TGI in the assay with MALME-3M melanoma is over 100 µM; in the assay on DLD-1 colon, over 100 µM; with HCT-116 colon it was over 100 µM; in the assay on DMS 114 small cell lung, over 100 µM; with HCC-2998 colon, over 79.1 µM; in the assay on IGROV1 ovarian it was over 100 µM.
For the compound `Clc1ccc(OCc2nnc(CCCCCCCCc3nnc(COc4ccc(Cl)cc4Cl)o3)o2)c(Cl)c1`, the TGI with K-562 leukemia, in the assay with NCI-H226 lung, in the assay on MALME-3M melanoma, with HCT-116 colon, with HCC-2998 colon and with IGROV1 ovarian was over 100 µM each time.
Take `COc1cc(C2c3cc4c(cc3OC(N3CCOCC3)C2C)OCO4)cc(OC)c1O` (stereo not given): the TGI was over 75.5 µM with K-562 leukemia; over 66.3 µM in the assay with NCI-H226 lung; 16.2 µM in the assay with MALME-3M melanoma; 11.4 µM with HCT-116 colon; over 57.8 µM in the assay with HCC-2998 colon; over 70.8 µM in the assay on IGROV1 ovarian.
For the compound `COc1ccc(-c2cc(-c3ccc(Nc4ccnc5cc(Cl)ccc45)cc3)nc(N)c2C#N)c2ccccc12`, the TGI with K-562 leukemia, with NCI-H226 lung, with MALME-3M melanoma, in the assay with HCT-116 colon, in the assay with HCC-2998 colon and with IGROV1 ovarian was over 100 µM in each case.
For `C=C(Br)CN(C#N)CC(=C)Br`, the TGI with K-562 leukemia, in the assay on NCI-H226 lung, in the assay on MALME-3M melanoma, with HCT-116 colon, in the assay on HCC-2998 colon and with IGROV1 ovarian was over 100 µM throughout.
As to `COC(=O)C(Cc1ccccc1)NC(=O)CNC(=O)CSc1nnc(COc2ccc(Cl)cc2)n1-c1ccccc1` (stereo not given), the TGI with K-562 leukemia is over 75.6 µM; with NCI-H226 lung it was 36.5 µM; in the assay on MALME-3M melanoma, 34.5 µM; with HCT-116 colon it was 33 µM; in the assay on HCC-2998 colon, 24.7 µM; in the assay on IGROV1 ovarian, 29.1 µM.
As to `O=C(c1ccco1)N(C(=S)N1CCN(c2ccccc2)CC1)c1ccccc1`, the TGI with K-562 leukemia, with HOP-18 NSCLC, in the assay with DMS 273 small cell lung, in the assay on KM20L2 colon, in the assay with NCI-H226 lung and in the assay with M19-MEL melanoma was over 100 µM in each case. Besides, the TGI in the assay on LXFL 529 NSCLC, in the assay on MALME-3M melanoma, with DLD-1 colon, with HCT-116 colon, in the assay on DMS 114 small cell lung and in the assay with SNB-78 CNS was over 100 µM throughout. In the assay on IGROV1 ovarian, this compound returned a TGI of over 100 µM.
Take `COc1ccc(-c2cn3ccnc3c(-c3ccc4ncn(C5CCCCC5)c4c3)n2)cc1`: the GI50 was 0.422 µM in the assay on K-562 leukemia; 2.97 µM with NCI-H226 lung; 43.1 µM in the assay on MALME-3M melanoma; 0.399 µM with HCT-116 colon; 2.92 µM in the assay with HCC-2998 colon; 0.921 µM in the assay on IGROV1 ovarian. Also, the TGI in the assay with K-562 leukemia was over 100 µM; in the assay on NCI-H226 lung it was over 100 µM; in the assay on MALME-3M melanoma, over 100 µM; in the assay on HCT-116 colon, 4.06 µM; in the assay with HCC-2998 colon it was over 100 µM; with IGROV1 ovarian, over 100 µM.
Consider `COc1cccc(C2c3cc4c(cc3OC(N3CCOCC3)C2C)OCO4)c1O` (stereo not given), for which the TGI with K-562 leukemia is 38.1 µM; in the assay with NCI-H226 lung, 20.9 µM; with MALME-3M melanoma, over 78.6 µM; in the assay on HCT-116 colon, 16.6 µM; with HCC-2998 colon it was 21.9 µM; in the assay with IGROV1 ovarian, 53.7 µM.
Consider `COC(=O)c1c(O)ccc2c1c1c(n2C)C(=O)c2ccccc2C1=O`, for which the TGI with K-562 leukemia is over 100 µM; with NCI-H226 lung, over 100 µM; with MALME-3M melanoma, over 100 µM; with HCT-116 colon it was 32.1 µM; in the assay on HCC-2998 colon, 49.3 µM; with IGROV1 ovarian it was 21.8 µM.
On to `CC(NCCS(=O)(=O)O)C(=O)O` (stereo not given), for which the TGI in the assay on K-562 leukemia, with HOP-18 NSCLC, in the assay with DMS 273 small cell lung, in the assay with KM20L2 colon, in the assay on NCI-H226 lung and with M19-MEL melanoma was over 100 µM throughout. The TGI with MALME-3M melanoma, in the assay with DLD-1 colon, with HCT-116 colon, in the assay on DMS 114 small cell lung, in the assay with SNB-78 CNS and in the assay with HCC-2998 colon was over 100 µM throughout. The TGI in the assay on IGROV1 ovarian was over 100 µM.
Turning to `CC1(C)CCOC(=O)C(Cl)CC1Cl` (stereo not given), the TGI in the assay on K-562 leukemia, in the assay with NCI-H226 lung, in the assay with MALME-3M melanoma, in the assay with HCT-116 colon, in the assay with HCC-2998 colon and in the assay with IGROV1 ovarian was over 100 µM throughout.
For the compound `CCN(CC)CCNc1ccc(N=Nc2ccc(S(N)(=O)=O)cc2)c2ccccc12`, the TGI in the assay on K-562 leukemia is over 100 µM; in the assay with NCI-H226 lung it was 72.7 µM; with MALME-3M melanoma, 36 µM; in the assay with HCT-116 colon, over 100 µM; in the assay on HCC-2998 colon it was 29.1 µM; in the assay with IGROV1 ovarian it was 28.8 µM.
